Results on ten compounds are retold here after publication PMC6354011 (Scientific Reports, 2019).

Test [1] addresses T1, Electric eel acetylcholinesterase (AChE, EC 3.1.1.7) (Electrophorus electricus, UniProt O42275).
T1 construct: purchased Sigma-Aldrich (USA)
The test is described as follows: biochemical. An excerpt: (§1) Ellman’s colorimetric method with minor modification was employed in the determination of AChE and BChE inhibitory activities. Electric eel acetylcholinesterase (AChE, EC 3.1.1.7), equine serum butyrylcholinesterase (BChE, EC 3.1.1.8), 5,5′-Dithiobis(2-nitrobenzoic acid) (DTNB) and sodium phosphate dibasic (Na2HPO4) were purchased from Sigma-Aldrich (USA). S-butyrylthiocholine chloride (BTCC) from Sigma-Aldrich (Switzerland), acetylthiocholine iodide (ATCI) from Sigma-Aldrich (United Kingdom) and sodium phosphate monobasic (NaH2PO4) from Sigma-Aldrich (Germany) were purchased. […] Ethanol was used to replace the sample as a control in this assay.

Test [2] deals with T2, equine serum butyrylcholinesterase (BChE, EC 3.1.1.8) (Equus caballus, UniProt P81908).
T2 construct: equine serum butyrylcholinesterase (BChE, EC 3.1.1.8); purchased Sigma-Aldrich (USA); host or cells: equine serum
T2 sequence (P81908 whole entry): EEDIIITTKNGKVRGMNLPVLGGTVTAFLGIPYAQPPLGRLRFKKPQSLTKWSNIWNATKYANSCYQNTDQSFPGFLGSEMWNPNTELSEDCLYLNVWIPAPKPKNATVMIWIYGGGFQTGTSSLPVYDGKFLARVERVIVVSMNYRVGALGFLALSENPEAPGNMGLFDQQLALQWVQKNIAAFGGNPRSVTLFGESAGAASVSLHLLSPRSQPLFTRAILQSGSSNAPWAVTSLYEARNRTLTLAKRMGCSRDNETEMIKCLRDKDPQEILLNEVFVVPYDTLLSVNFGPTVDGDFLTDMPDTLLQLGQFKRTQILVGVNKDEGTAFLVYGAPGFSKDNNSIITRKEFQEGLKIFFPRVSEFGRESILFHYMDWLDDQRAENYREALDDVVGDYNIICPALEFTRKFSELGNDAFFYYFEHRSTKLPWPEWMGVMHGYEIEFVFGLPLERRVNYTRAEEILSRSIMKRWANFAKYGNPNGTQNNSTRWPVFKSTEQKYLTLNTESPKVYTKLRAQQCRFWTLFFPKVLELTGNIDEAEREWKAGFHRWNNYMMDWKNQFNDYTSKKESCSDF
The test is described as follows: biochemical. Format: biochemical. To be noted: for BChE % inhibition: single read.
Text: as §1

Where [3] appears, read: average of three reads, read-out: AChE IC50 (µM) Average.
[4] abbreviates: average of three reads, read-out: AChE IC50 (µg/mL) Average (converted).
Where [5] appears, read: first read, read-out: AChE IC50 (µM) First read.
The mark [6] stands for this setting: first read, read-out: AChE IC50 (µg/mL) First read (converted).
[7] abbreviates: mean ± SD, n = 3, read-out: IC50 (µM) AChE.
[8] abbreviates: second read, read-out: AChE IC50 (µM) Second read.
[9] abbreviates: second read, read-out: AChE IC50 (µg/mL) Second read (converted).
Setting [10] is: third read, read-out: AChE IC50 (µM) Third read.
The mark [11] stands for this setting: third read, read-out: AChE IC50 (µg/mL) Third read (converted).
The mark [12] stands for this setting: N = 3, unit not given (µg/mL scale), read-out: BChE IC50, Tukey HSD homogeneous subsets (group mean) (converted).
The mark [13] stands for this setting: average of three reads, read-out: BChE IC50 (µM) Average.
The mark [14] stands for this setting: average of three reads, read-out: BChE IC50 (µg/mL) Average (converted).
The mark [15] stands for this setting: first read, read-out: BChE IC50 (µM) First read.
Where [16] appears, read: first read, read-out: BChE IC50 (µg/mL) First read (converted).
The mark [17] stands for this setting: mean ± SD, n = 3, read-out: IC50 (µM) BChE.
Where [18] appears, read: second read, read-out: BChE IC50 (µM) Second read.
Setting [19] is: second read, read-out: BChE IC50 (µg/mL) Second read (converted).
[20] abbreviates: third read, read-out: BChE IC50 (µM) Third read.
Where [21] appears, read: third read, read-out: BChE IC50 (µg/mL) Third read (converted).

The structures appear in SMILES notation. Several values for one entry are separate records, joined by “and”; a condition that tells them apart may be missing. Equal values may be shown once. Read-outs that look alike come from different tables or passages of the source. Bounds are passed on as bounds.

T1 sequence (O42275 24-633): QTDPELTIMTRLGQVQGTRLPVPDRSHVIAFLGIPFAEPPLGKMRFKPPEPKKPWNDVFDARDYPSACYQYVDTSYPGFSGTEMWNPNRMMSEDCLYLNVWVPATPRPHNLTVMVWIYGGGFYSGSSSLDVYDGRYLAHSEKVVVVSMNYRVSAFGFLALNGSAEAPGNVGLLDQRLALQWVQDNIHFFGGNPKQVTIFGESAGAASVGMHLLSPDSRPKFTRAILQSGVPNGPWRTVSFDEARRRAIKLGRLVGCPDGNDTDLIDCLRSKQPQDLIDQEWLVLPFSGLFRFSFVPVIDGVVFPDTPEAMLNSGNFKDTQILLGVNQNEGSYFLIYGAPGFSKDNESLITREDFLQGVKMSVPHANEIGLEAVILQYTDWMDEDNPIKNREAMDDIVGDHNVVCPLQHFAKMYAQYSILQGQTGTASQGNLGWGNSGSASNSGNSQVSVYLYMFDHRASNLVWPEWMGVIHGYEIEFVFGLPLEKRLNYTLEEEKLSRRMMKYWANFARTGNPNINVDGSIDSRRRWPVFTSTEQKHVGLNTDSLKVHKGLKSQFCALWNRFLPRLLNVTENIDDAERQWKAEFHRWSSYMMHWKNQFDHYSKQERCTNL

With `Cc1cccn2cc(-c3ccc(-c4ccccc4)cc3)nc12` [Compound 2g, 2-([1,1′-biphenyl]-4-yl)-8-methylimidazo[1,2-a]pyridine], the IC50 was 288 µM in test [1] (setting [3]); 288 µM in test [1] (setting [4]); 343 µM in test [1] (setting [5]); 343 µM in test [1] (setting [6]); 288 ± 48 µM in test [1] (setting [7]); 264 µM in test [1] (setting [8]). Further, the IC50 in test [1] (setting [9]) was 263 µM; in test [1] (setting [10]), 258 µM; in test [1] (setting [11]), 258 µM; in test [2] (setting [12]) it was 315 µM; in test [2] (setting [13]) it was 315 µM; in test [2] (setting [14]) it was 315 µM. The IC50 is 311 µM in test [2] (setting [15]); 310 µM in test [2] (setting [16]); 315 ± 6 µM in test [2] (setting [17]); 322 µM in test [2] (setting [18]); 322 µM in test [2] (setting [19]); 312 µM in test [2] (setting [20]). For the same compound, the IC50 in test [2] (setting [21]) was 311 µM. In addition, the AChE % inhibition in test [1] (conc 100 (µg/mL), single read) is 66.67% and 62.62% and 65.90%; in test [1] (conc 150 (µg/mL), single read), 81.50% and 87.67% and 85.81%; in test [1] (conc 200 (µg/mL), single read), 83.04% and 90.94% and 100.39%; in test [1] (conc 250 (µg/mL), single read), 106.74% and 92.10% and 107.32%; in test [1] (conc 300 (µg/mL), single read), 140.85% and 130.64% and 128.52%. In addition, the BChE % inhibition is 7.74% and 0.19% and 6.00% in test [2] (conc 60 (µg/mL)); 35.59% and 45.45% and 37.33% in test [2] (conc 80 (µg/mL)); 48.36% and 35.01% and 51.84% in test [2] (conc 90 (µg/mL)); 61.12% and 73.89% and 66.92% in test [2] (conc 100 (µg/mL)); 84.33% and 65.76% and 66.92% in test [2] (conc 110 (µg/mL)); 106.96% and 76.79% and 121.47% in test [2] (conc 120 (µg/mL)).
Take `Clc1ccn2cc(C34CC5CC(CC(C5)C3)C4)nc2c1` [Compound 2e, 2-(adamantan-1-yl)-7-chloroimidazo[1,2-a]pyridine hydrate]: the IC50 in test [1] (setting [7]) and in test [2] (setting [17]) was over 2000 µM throughout.
In the case of `Clc1ccc(-c2cn3ccccc3n2)cc1Cl` [Compound 2j, 2-(3,4-dichlorophenyl)imidazo[1,2-a]pyridine], the IC50 in test [1] (setting [7]) is over 2000 µM; in test [2] (setting [12]), 75.6 µM. The BChE % inhibition in test [2] (conc 12.5 (µg/mL)) was 27.75% and 48.55% and 34.78%; in test [2] (conc 25 (µg/mL)), 50.87% and 55.49% and 62.14%; in test [2] (conc 50 (µg/mL)), 63.01% and 66.76% and 69.65%; in test [2] (conc 100 (µg/mL)), 91.04% and 87.86% and 90.17%.
With `c1ccn2cc(C34CC5CC(CC(C5)C3)C4)nc2c1` [Compound 2a, 2-(adamantan-1-yl)imidazo[1,2-a]pyridine], the IC50 in test [1] (setting [7]) and in test [2] (setting [17]) was over 2000 µM throughout.
`Cc1ccc2nc(C34CC5CC(CC(C5)C3)C4)cn2c1` [Compound 2d, 2-(adamantan-1-yl)-6-methylimidazo[1,2-a]pyridine]: the IC50 in test [1] (setting [7]) and in test [2] (setting [17]) was over 2000 µM each time.
As to `Cc1cccn2cc(C34CC5CC(CC(C5)C3)C4)nc12.O` [Compound 2b, 2-(adamantan-1-yl)-8-methylimidazo[1,2-a]pyridine hydrate], the IC50 in test [1] (N = 3, unit not printed (µg/mL scale), read-out: AChE IC50, Tukey HSD homogeneous subsets (group mean) (converted)) is 614 µM; in test [1] (setting [3]) it was 657 µM; in test [1] (setting [4]), 614 µM; in test [1] (setting [5]), 721 µM; in test [1] (setting [7]) it was 657 ± 60 µM; in test [1] (setting [8]), 646 µM. Further, the IC50 in test [1] (single read, unit not printed at place (µg/mL), read-out: AChE IC50 from regression on raw-data page (converted)) is 674 µM and 605 µM and 564 µM; in test [1] (setting [10]) it was 603 µM; in test [2] (setting [12]), 663 µM; in test [2] (setting [13]), 706 µM; in test [2] (setting [14]), 660 µM; in test [2] (setting [15]) it was 681 µM. The IC50 in test [2] (setting [16]) is 637 µM; in test [2] (setting [17]), 706 ± 37 µM; in test [2] (setting [18]), 748 µM; in test [2] (setting [19]), 700 µM; in test [2] (setting [20]) it was 689 µM; in test [2] (setting [21]), 644 µM. For the same compound, the AChE % inhibition was 23.63% and 19.6906% and 32.91% in test [1] (conc 50 (µg/mL), single read); 27.71% and 37.97% and 34.60% in test [1] (conc 100 (µg/mL), single read); 38.54% and 49.65% and 47.82% in test [1] (conc 150 (µg/mL), single read); 52.60% and 54.71% and 61.74% in test [1] (conc 200 (µg/mL), single read); 60.34% and 65.68% and 64.70% in test [1] (conc 250 (µg/mL), single read); 75.67% and 76.23% and 73.56% in test [1] (conc 300 (µg/mL), single read). Also, the BChE % inhibition in test [2] (conc 50 (µg/mL)) was 21.17% and 17.3469% and 18.49%; in test [2] (conc 100 (µg/mL)), 28.06% and 27.68% and 30.36%; in test [2] (conc 200 (µg/mL)) it was 49.87% and 45.66% and 43.75%; in test [2] (conc 300 (µg/mL)) it was 64.41% and 61.35% and 67.86%; in test [2] (conc 400 (µg/mL)) it was 72.45% and 75.51%; in test [2] (conc 500 (µg/mL)), 80.48% and 74.74% and 73.60%. In addition, the BChE % inhibition in test [2] (conc 600 (µg/mL)) is 81.63% and 77.81%; in test [2] (conc 700 (µg/mL)), 82.40% and 85.08% and 88.14%.
As to `c1ccc(-c2ccc(-c3cn4ccccc4n3)cc2)cc1` [Compound 2f, 2-([1,1′-biphenyl]-4-yl)imidazo[1,2-a]pyridine], the IC50 is 208 µM in test [1] (setting [3]); 208 µM in test [1] (setting [4]); 228 µM in test [1] (setting [5]); 228 µM in test [1] (setting [6]); 208 ± 17 µM in test [1] (setting [7]); 196 µM in test [1] (setting [8]). Further, the IC50 is 196 µM in test [1] (setting [9]), 200 µM in test [1] (setting [10]), 200 µM in test [1] (setting [11]) and over 2000 µM in test [2] (setting [17]). Besides, the AChE % inhibition is -1.6523% and -0.07% in test [1] (conc 30 (µg/mL), single read); 19.47% and 31.90% and 23.42% in test [1] (conc 40 (µg/mL), single read); 46.62% and 65.66% and 72.27% in test [1] (conc 60 (µg/mL), single read); 57.54% and 72.63% and 80.68% in test [1] (conc 70 (µg/mL), single read); 86.28% and 82.61% and 80.17% in test [1] (conc 80 (µg/mL), single read).
For `Cc1ccc2nc(-c3ccc(-c4ccccc4)cc3)cn2c1` [Compound 2h, 2-([1,1′-biphenyl]-4-yl)-6-methylimidazo[1,2-a]pyridine], the IC50 in test [1] (setting [3]) is 79.2 µM; in test [1] (setting [4]), 79.1 µM; in test [1] (setting [5]), 83.8 µM; in test [1] (setting [6]) it was 83.7 µM; in test [1] (setting [7]) it was 79 ± 10 µM; in test [1] (setting [8]), 86.3 µM. Further, the IC50 was 86.2 µM in test [1] (setting [9]); 67.4 µM in test [1] (setting [10]); 67.3 µM in test [1] (setting [11]); 484 µM in test [2] (setting [12]); 496 µM in test [2] (setting [13]); 496 µM in test [2] (setting [14]). The IC50 is 485 µM in test [2] (setting [15]); 484 µM in test [2] (setting [16]); 496 ± 27 µM in test [2] (setting [17]); 477 µM in test [2] (setting [18]); 476 µM in test [2] (setting [19]); 528 µM in test [2] (setting [20]). Further, in test [2] (setting [21]), the IC50 is 527 µM. The AChE % inhibition was 58.20% and 76.39% and 68.79% in test [1] (conc 25 (µg/mL), single read); 92.28% and 79.96% and 93.21% in test [1] (conc 50 (µg/mL), single read); 92.40% and 88.83% and 96.55% in test [1] (conc 75 (µg/mL), single read); 99.77% and 84.22% and 106.56% in test [1] (conc 100 (µg/mL), single read). Further, the BChE % inhibition in test [2] (conc 50 (µg/mL)) was 28.12% and 20.13% and 20.63%; in test [2] (conc 100 (µg/mL)) it was 19.13% and 27.12% and 17.64%; in test [2] (conc 150 (µg/mL)) it was 48.09% and 45.09% and 49.08%; in test [2] (conc 200 (µg/mL)) it was 83.03% and 81.03% and 75.54%; in test [2] (conc 250 (µg/mL)) it was 102.50% and 115.97% and 86.02%.
In the case of `COc1ccc(-c2cn3cccc(C)c3n2)cc1` [Compound 2m, 2-(4-methoxyphenyl)-8-methylimidazo[1,2-a]pyridine], the IC50 in test [1] (setting [7]) and in test [2] (setting [17]) was over 2000 µM each time.
On to `Cc1cccn2cc(-c3ccc(Cl)cc3)nc12` [Compound 2n, 2-(4-chlorophenyl)-8-methylimidazo[1,2-a]pyridine], for which the values for the IC50 in test [1] (setting [7]), in test [2] (setting [12]) and in test [2] (setting [17]) were over 2000 µM, 737 µM and 722 ± 48 µM, respectively. The BChE % inhibition in test [2] (conc 25 (µg/mL)) is 10.83% and 20.0586% and 13.47%; in test [2] (conc 100 (µg/mL)) it was 42.02% and 27.53% and 43.78%; in test [2] (conc 150 (µg/mL)), 45.53% and 45.97% and 50.81%; in test [2] (conc 200 (µg/mL)) it was 56.52% and 54.76% and 59.15%; in test [2] (conc 250 (µg/mL)) it was 63.98% and 61.79%.
